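Protocol summary: plate cells (96-well), add compound at 5 concentrations, incubate 48 h, interpolate endpoints linearly. GI50 = concentration required for 50% inhibition of growth. TGI marks complete inhibition of growth.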
Key:
Test in all cases: inhibition of tumour cell growth, NCI panel, 48 h
HCC-2998 colon = tested on: HCC-2998 colon
HOP-62 NSCLC = tested on: HOP-62 NSCLC
UO-31 renal = tested on: UO-31 renal
HOP-92 NSCLC = tested on: HOP-92 NSCLC
NCI/ADR-RES ovarian = tested on: NCI/ADR-RES ovarian
T-47D breast = tested on: T-47D breast
OVCAR-8 ovarian = tested on: OVCAR-8 ovarian
EKVX NSCLC = tested on: EKVX NSCLC
A549 NSCLC = tested on: A549 NSCLC
NCI-H522 lung = tested on: NCI-H522 lung

Compound | GI50 (HCC-2998 colon) [µM] | TGI (HCC-2998 colon) [µM] | GI50 (HOP-62 NSCLC) [µM] | TGI (HOP-62 NSCLC) [µM] | GI50 (UO-31 renal) [µM] | TGI (UO-31 renal) [µM] | GI50 (HOP-92 NSCLC) [µM] | TGI (HOP-92 NSCLC) [µM] | TGI (NCI/ADR-RES ovarian) [µM] | TGI (T-47D breast) [µM] | TGI (OVCAR-8 ovarian) [µM] | TGI (EKVX NSCLC) [µM] | TGI (A549 NSCLC) [µM] | TGI (NCI-H522 lung) [µM] | GI50 (NCI/ADR-RES ovarian) [µM] | GI50 (T-47D breast) [µM] | GI50 (NCI-H522 lung) [µM] | GI50 (EKVX NSCLC) [µM] | GI50 (OVCAR-8 ovarian) [µM] | GI50 (A549 NSCLC) [µM]
COc1ccc2c(c1)c(-c1nc(-c3c[nH]c4ncccc34)cs1)cn2CCCCN1CCCCC1 | 1.74 | 3.29 | 1.48 | 2.95 | 1.38 | 2.77 | 1.18 | 2.48 |  |  |  |  |  |  |  |  |  |  |  | 
CCC(=O)OCN(C)c1nc(N(C)COC(=O)CC)nc(N(C)COC(=O)CC)n1 |  | 68.6 |  | > 100 |  | > 100 |  | > 100 | > 100 | > 100 | > 100 |  |  |  |  |  |  |  |  | 
O=C1c2ccccc2OCC12OC21C=CC(Cl)=CC1 (stereo unspecified) |  | 42.2 |  | 92.1 |  | 65.1 |  | > 100 | 50.1 |  |  | 51.8 | 56.6 |  |  |  |  |  |  | 
N[C@H](Cc1ccc2oc3cc(=O)c4ccccc4c-3nc2c1)C(=O)O |  |  |  | > 100 |  | > 100 |  | > 100 | > 100 | > 100 | > 100 | > 100 | > 100 | > 100 |  |  |  |  |  | 
COC(=O)C1=C(OC)[C@H]2C#C/C=C\C#C[C@@H]3Nc4c(cc(O)c5c4C(=O)c4ccccc4C5=O)[C@]24O[C@@]34[C@H]1C |  | < 0.0135 |  | < 0.01 |  | < 0.01 |  | < 0.01 | < 0.01 |  | < 0.01 | 0.0335 | 0.111 | 0.0177 |  |  |  |  |  | 
Cc1nc2ccc(S(=O)(=O)Nc3nccs3)cc2c(=O)n1NS(=O)(=O)c1nccs1 |  | > 100 |  | > 100 |  | > 100 |  | > 100 | > 100 | > 100 | > 100 | > 100 |  | > 100 |  |  |  |  |  | 
O=C(CBr)c1ccc2cc(Br)c3ccccc3c2c1 |  | > 100 |  | > 100 |  | 62.7 |  | 45.7 | > 100 |  | 55.8 | 54.5 | 76.7 | 37.6 |  |  |  |  |  | 
CCCCC1C=Cn2c(=O)oc3c(OC(C)C)c(C)c(O)c1c32 (stereo unspecified) |  | 13.6 |  | 10.5 |  | 7.02 |  | 12.2 | 5.88 | 5.93 | 11.4 | 6.83 | 6.97 | 5.87 |  |  |  |  |  | 
O=C(N[C@@H](Cc1coc2ccccc12)B(O)O)[C@@H]1C[C@H]2CC[C@@H]1O2 | 5.11 | 21.1 | 3.65 | 43.6 | 2 | 11.3 | 5.06 | 80.8 | > 100 | > 100 | > 100 | > 100 | > 100 | 81.6 | 48 | 2.77 | 5.04 | 22.7 | 80.8 | 7.58
C(=Nc1ccc2c(c1)Cc1ccccc1-2)c1ccccn1 |  |  |  | > 100 |  | > 100 |  | > 100 | > 100 | > 100 | > 100 | > 100 | > 100 | > 100 |  |  |  |  |  | 
CN(C)CCCNc1ccc2ncn3c4ccc(O)cc4c(=O)c1c23 |  | 18.1 |  | 8.97 |  | 11.4 |  | 15.3 | > 100 | 30.5 | 11.7 | 16.6 | 5.82 | 3.16 |  |  |  |  |  | 
CCCn1cnc2c(SCc3ccc(Cl)cc3)nc(N)nc21 |  | 52.5 |  | 44.4 |  | > 100 |  | > 100 | 73.2 | > 100 | > 100 | 43.5 | > 100 | 36.9 |  |  |  |  |  | 
CCCO[C@@H]1[C@@H](OC(C)=O)[C@@H](OC(C)=O)C(C)(C)/C=C/[C@H](C)C(=O)[C@@]2(OC(C)=O)C[C@@](C)(OC(C)=O)[C@H](OC(C)=O)[C@@H]2[C@H]2OC(=O)CC[C@@]12OC(=O)c1ccccc1 |  | > 25 |  | > 25 |  | > 25 |  | > 25 | > 25 | > 25 | > 25 | > 25 |  | > 25 |  |  |  |  |  | 
O=c1cc(CF)[nH]c(=S)[nH]1 |  | > 100 |  | > 100 |  | > 100 |  | > 100 | > 100 | > 100 | > 100 | > 100 | > 100 | > 100 |  |  |  |  |  | 
C=CCCC1(C)CCCNC1=S (stereo unspecified) |  | > 100 |  | > 100 |  | > 100 |  | > 100 |  |  | > 100 | > 100 | > 100 |  |  |  |  |  |  | 
CNC(C)C(O)c1ccc2oc3cc(=O)c4ccccc4c-3nc2c1 (stereo unspecified) |  | > 100 |  | 18.1 |  | 67 |  | > 100 | > 100 | 98.4 | > 100 | > 100 | > 100 | 33.7 |  |  |  |  |  | 
COc1ccc(C2COc3c(ccc(O)c3C)C2)cc1OC (stereo unspecified) |  | 121 |  | > 200 |  | 178 |  | > 186 | > 200 |  | > 200 | > 200 | > 167 | 142 |  |  |  |  |  | 
CCOC(=O)c1sc2nc(SC)nc(Nc3ccc4c(c3)OCCO4)c2c1N |  | > 100 |  | 29.5 |  | 36.7 |  | 27.4 | 44.7 | 26.2 | 23.1 | 26.6 | > 100 | 23.8 |  |  |  |  |  | 
C/C(=N\NC(=S)N1CCCC1)c1nc2ncccc2[nH]1 |  | > 100 |  | 24.6 |  | 0.492 |  | 8.5 | > 100 | > 100 | 39.9 |  | > 100 | 30.2 |  |  |  |  |  | 
